Experimental data from paper PMC9919513, “A Practical Approach to Bicyclic Carbamoyl Pyridones with Application to the Synthesis of HIV-1 Integrase Strand Transfer Inhibitors” (Molecules, 2023).
Where two headings read alike, the source gives them in different places.

Experiments:
[1] = tested on: HIV-1 vectors that carry WT IN; assay: Single-round HIV-1 replication antiviral assay, wild-type IN; assay type: cell-based; conditions: for EC50: 48 h; for Ratio of the antiviral potencies after and before hydrogenation (WT): EC50 of saturated 7 over EC50 of unsaturated 6, WT IN
Procedure: The bicyclic metal chelating carbamoyl pyridone moiety is common to second-generation tricyclic INSTIs (3, 4, and 5, Figure 1). Analogs of the current study are simplified analogs that lack a third ring. […] The halogen substitution pattern of the benzylamide moiety can affect inhibitory potencies of INSTIs. We determined the antiviral potencies of our compounds in single round HIV-1 replication assays using viral constructs with wild-type IN [31]. Cytotoxicities were determined as previously described. […] In general, the potencies of bicyclic analogs 6 having an unsaturated bond at the C4 position were insensitive to differences in N-methyl substituents. […] Analogs 6g and 6h represent simplified analogs of DTG (3) and CAB (5), respectively, in which the third ring (C-ring) is opened and having doble bond in B-ring, but lacking α-methyl stereochemistry.
Human embryonic kidney cell culture cell line 293 was acquired from the American Type Culture Collection (ATCC). The human osteosarcoma cell line, HOS, was obtained from Dr. Richard Schwartz (Michigan State University, East Lansing, MI, USA) and grown in Dulbecco’s modified Eagle’s medium (Invitrogen, Carlsbad, CA, USA) supplemented with 5% (v/v) fetal bovine serum, 5% newborn calf serum, and penicillin (50 units/mL) plus streptomycin (50 µg/mL; Quality Biological, Gaithersburg, MD, USA). The transfection vector, pNLNgoMIVR-ΔLUC was made from pNLNgoMIVR-ΔEnv.HSA by removing the HSA reporter gene and replacing it with a luciferase reporter gene between the NotI and XhoI restriction sites. To produce the new IN mutant S230N used in this study, the IN open reading frame was removed from pNLNgoMIVR-ΔENV.LUC by digestion with KpnI and SalI, and the resulting fragment was inserted between the KpnI and SalI sites of pBluescript KS+. Using that construct as the wild-type template, we prepared the following HIV-1 IN mutant S230N using the QuikChange II XL site-directed mutagenesis kit (Agilent Technologies, Santa Clara, CA, USA) protocol. The following sense oligonucleotides were used with matching cognate antisense oligonucleotides (not shown) (Integrated DNA Technologies, Coralville, IA, USA) in the mutagenesis: S230N 5′-[…]-3′. The DNA sequence of the IN mutant S230N construct was verified independently by DNA sequence determination. The mutated IN coding sequences from pBluescript KS+ were then subcloned into pNLNgoMIVR-ΔEnv.LUC (between the KpnI and SalI sites) to produce mutant HIV-1 constructs, which were also checked by DNA sequencing. […]. On the day prior to transfection, 293 cells were plated on 100 mm diameter dishes at a density of 1.5 × 10^6 cells per plate. Next, 293 cells were transfected with 16 µg of pNLNgoMIVR^-ΔLUC and 4 µg of pHCMV-g (obtained from Dr. Jane Burns, University of California, San Diego) using the calcium phosphate method. At approximately 6 h after the calcium phosphate precipitate was added, 293 cells were washed twice with phosphate-buffered saline (PBS) and incubated with fresh media for 48 h. The virus-containing supernatants were then harvested, clarified by low-speed centrifugation, filtrated, and diluted for preparation in antiviral infection assays. On the day prior to the screen, HOS cells were seeded in a 96-well luminescence cell culture plate at a density of 4000 cells in 100 µL per well. On the day of the screen for cellular cytotoxicity determination, cells were treated with compounds from a concentration range of 250 µM to 0.05 µM and then incubated at 37 °C for 48 h. On the day of the screen for antiviral activity infection assays, cells were treated with compounds from a concentration range of 5 µM to 0.0001 µM using 11 serial dilutions and then incubated at 37 °C for 3 h. After compound incorporation and activation in the cell, 100 µL of virus-stock (WT or mutant) diluted to achieve a luciferase signal between 0.2 and 1.5 Relative Luciferase Units (RLUs) was added to each well and further incubated at 37 °C for 48 h. […]

in vitro = assay type: cell-based; conditions: human, HOS cells
Procedure: Human embryonic kidney cell culture cell line 293 was acquired from the American Type Culture Collection (ATCC). The human osteosarcoma cell line, HOS, was obtained from Dr. Richard Schwartz (Michigan State University, East Lansing, MI, USA) and grown in Dulbecco’s modified Eagle’s medium (Invitrogen, Carlsbad, CA, USA) supplemented with 5% (v/v) fetal bovine serum, 5% newborn calf serum, and penicillin (50 units/mL) plus streptomycin (50 µg/mL; Quality Biological, Gaithersburg, MD, USA). The transfection vector, pNLNgoMIVR-ΔLUC was made from pNLNgoMIVR-ΔEnv.HSA by removing the HSA reporter gene and replacing it with a luciferase reporter gene between the NotI and XhoI restriction sites. To produce the new IN mutant S230N used in this study, the IN open reading frame was removed from pNLNgoMIVR-ΔENV.LUC by digestion with KpnI and SalI, and the resulting fragment was inserted between the KpnI and SalI sites of pBluescript KS+. Using that construct as the wild-type template, we prepared the following HIV-1 IN mutant S230N using the QuikChange II XL site-directed mutagenesis kit (Agilent Technologies, Santa Clara, CA, USA) protocol. The following sense oligonucleotides were used with matching cognate antisense oligonucleotides (not shown) (Integrated DNA Technologies, Coralville, IA, USA) in the mutagenesis: S230N 5′-[…]-3′. The DNA sequence of the IN mutant S230N construct was verified independently by DNA sequence determination. The mutated IN coding sequences from pBluescript KS+ were then subcloned into pNLNgoMIVR-ΔEnv.LUC (between the KpnI and SalI sites) to produce mutant HIV-1 constructs, which were also checked by DNA sequencing. […]. On the day prior to transfection, 293 cells were plated on 100 mm diameter dishes at a density of 1.5 × 10^6 cells per plate. Next, 293 cells were transfected with 16 µg of pNLNgoMIVR^-ΔLUC and 4 µg of pHCMV-g (obtained from Dr. Jane Burns, University of California, San Diego) using the calcium phosphate method. At approximately 6 h after the calcium phosphate precipitate was added, 293 cells were washed twice with phosphate-buffered saline (PBS) and incubated with fresh media for 48 h. The virus-containing supernatants were then harvested, clarified by low-speed centrifugation, filtrated, and diluted for preparation in antiviral infection assays. On the day prior to the screen, HOS cells were seeded in a 96-well luminescence cell culture plate at a density of 4000 cells in 100 µL per well. On the day of the screen for cellular cytotoxicity determination, cells were treated with compounds from a concentration range of 250 µM to 0.05 µM and then incubated at 37 °C for 48 h. On the day of the screen for antiviral activity infection assays, cells were treated with compounds from a concentration range of 5 µM to 0.0001 µM using 11 serial dilutions and then incubated at 37 °C for 3 h. After compound incorporation and activation in the cell, 100 µL of virus-stock (WT or mutant) diluted to achieve a luciferase signal between 0.2 and 1.5 Relative Luciferase Units (RLUs) was added to each well and further incubated at 37 °C for 48 h. Cellular cytotoxicity was measured by using the ATP Lite Luminescence detection system and monitored by adding 50 µL of cell lysis buffer from the Luminescence ATP detection assay to each well followed by mixing at 700 rpm at room temperature for 5 min using a compact thermomixer. After addition of 50 µL of reconstituted Luminescence ATP detection assay reagent to all wells except for the negative control/background wells, the plates were mixed at 700 rpm at room temperature for 5 min using a compact thermomixer, incubated at room temperature for 20 min to allow time for signal development, and finally, cytotoxicity was determined using the microplate reader. Infectivity was measured by using the Steady-lite plus luminescence reporter gene assay system (PerkinElmer, Waltham, MA, USA). […]

[2] = Human immunodeficiency virus 1, HOS, read-out: EC50, antiviral potency, WT IN, VSV-g-pseudotyped HIV-1 luciferase vector with WT IN, HOS cells, 48 h
[3] = 48 h, read-out: CC50, cytotoxic concentration resulting in 50% reduction in the level of ATP

O=C(NCc1c(F)cc(F)cc1F)c1cn2c(c(O)c1=O)C(=O)N1[C@H]3CC[C@H](C3)O[C@@H]1C2 [BIC, Bictegravir, reference compound] showed an EC50 [1, 2] of about 2 nM.

Work on C[C@H]1CO[C@@H]2Cn3cc(C(=O)NCc4ccc(F)cc4F)c(=O)c(O)c3C(=O)N12 [CAB, Cabotegravir, reference compound] yielded an EC50 [1, 2] of about 2 nM.

In the case of Cn1ccn2cc(C(=O)NCc3ccc(F)cc3F)c(=O)c(O)c2c1=O [Compound 6a, N-(2,4-Difluorobenzyl)-9-hydroxy-2-methyl-1,8-dioxo-1,8-dihydro-2H-pyrido [1,2-a]pyrazine-7-carboxamide], the EC50 [1, 2] is reported as 2.7 ± 0.2 nM and the melting point is reported as 275 to 280 °C.

CC(C)n1ccn2cc(C(=O)NCc3ccc(F)cc3F)c(=O)c(O)c2c1=O [Compound 6b, N-(2,4-Difluorobenzyl)-9-hydroxy-2-isopropyl-1,8-dioxo-1,8-dihydro-2H-pyrido [1,2-a]pyrazine-7-carboxamide] showed an EC50 [1, 2] of 3.8 ± 0.6 nM and a CC50 (in vitro; [3]) of over 250000 nM.

COCCCCCCn1ccn2cc(C(=O)NCc3ccc(F)cc3F)c(=O)c(O)c2c1=O [Compound 6f, N-(2,4-Difluorobenzyl)-9-hydroxy-2-(6-methoxyhexyl)-1,8-dioxo-1,8-dihydro-2H-pyrido [1,2-a]pyrazine-7-carboxamide] showed an EC50 [1, 2] of 4.8 ± 0.2 nM and a CC50 (in vitro; [3]) of over 250000 nM.

With COCCCn1ccn2cc(C(=O)NCc3ccc(F)cc3F)c(=O)c(O)c2c1=O [Compound 6g, N-(2,4-Difluorobenzyl)-9-hydroxy-2-(3-methoxypropyl)-1,8-dioxo-1,8-dihydro-2H-pyrido [1,2-a]pyrazine-7-carboxamide] the EC50 [1, 2] was about 2 nM and the CC50 (in vitro; [3]) was over 250000 nM.

COCCn1ccn2cc(C(=O)NCc3ccc(F)cc3F)c(=O)c(O)c2c1=O [Compound 6h, N-(2,4-Difluorobenzyl)-9-hydroxy-2-(2-methoxyethyl)-1,8-dioxo-1,8-dihydro-2H-pyrido [1,2-a]pyrazine-7-carboxamide] gave an EC50 [1, 2] of about 2 nM, an EC50 ([1]; read-out: EC50, antiviral potency, WT IN, VSV-g-pseudotyped HIV-1 luciferase vector with WT IN, HOS cells) of 1.9 ± 0.4 nM and a CC50 (in vitro; [3]) of over 250000 nM.

CC(C)CC(C)n1ccn2cc(C(=O)NCc3ccc(F)cc3F)c(=O)c(O)c2c1=O (stereo not shown) [Compound 6i, N-(2,4-Difluorobenzyl)-9-hydroxy-2-(4-methylpentan-2-yl)-1,8-dioxo-1,8-dihydro-2H-pyrido [1,2-a]pyrazine-7-carboxamide] gave an EC50 [1, 2] of 4.2 ± 1 nM, a melting point of 199 to 203 °C and a CC50 (in vitro; [3]) of over 250000 nM.

With CN1CCn2cc(C(=O)NCc3ccc(F)cc3F)c(=O)c(O)c2C1=O [Compound 7a, N-(2,4-Difluorobenzyl)-9-hydroxy-2-methyl-1,8-dioxo-1,3,4,8-tetrahydro-2H-pyrido [1,2-a]pyrazine-7-carboxamide] the “Ratio of the antiviral potencies after and before hydrogenation (WT)” value (“Ratio of the antiviral potencies” for short) [1] was 1.7, the EC50 [1, 2] was 4.6 ± 0.7 nM and the melting point was 247 to 252 °C. For the same molecule, the CC50 (in vitro; [3]) was over 250000 nM.

With CC(C)N1CCn2cc(C(=O)NCc3ccc(F)cc3F)c(=O)c(O)c2C1=O [Compound 7b, N-(2,4-Difluorobenzyl)-9-hydroxy-2-isopropyl-1,8-dioxo-1,3,4,8-tetrahydro-2H-pyrido [1,2-a]pyrazine-7-carboxamide] the “Ratio of the antiviral potencies” value [1] was 0.79, the EC50 [1, 2] was 3 ± 0.1 nM and the CC50 (in vitro; running text of b13, read-out: CC50, cytotoxicity) was 167000 nM.

In the case of COCCCCCCN1CCn2cc(C(=O)NCc3ccc(F)cc3F)c(=O)c(O)c2C1=O [Compound 7f, N-(2,4-Difluorobenzyl)-9-hydroxy-2-(6-methoxyhexyl)-1,8-dioxo-1,3,4,8-tetrahydro-2H-pyrido [1,2-a]pyrazine-7-carboxamide], the “Ratio of the antiviral potencies” value [1] is reported as 0.96, the EC50 [1, 2] is reported as 4.6 ± 0.4 nM and the melting point is reported as 228 to 232 °C. The CC50 (in vitro; [3]) was over 250000 nM.

For COCCCN1CCn2cc(C(=O)NCc3ccc(F)cc3F)c(=O)c(O)c2C1=O [Compound 7g, N-(2,4-Difluorobenzyl)-9-hydroxy-2-(3-methoxypropyl)-1,8-dioxo-1,3,4,8-tetrahydro-2H-pyrido [1,2-a]pyrazine-7-carboxamide], the “Ratio of the antiviral potencies” value [1] was 2.0, the EC50 [1, 2] was 4 ± 0.7 nM and the melting point was 250 to 252 °C. It also gave a CC50 (in vitro; [3]) of over 250000 nM.

In the case of COCCN1CCn2cc(C(=O)NCc3ccc(F)cc3F)c(=O)c(O)c2C1=O [Compound 7h, N-(2,4-Difluorobenzyl)-9-hydroxy-2-(2-methoxyethyl)-1,8-dioxo-1,3,4,8-tetrahydro-2H-pyrido [1,2-a]pyrazine-7-carboxamide], the “Ratio of the antiviral potencies” value [1] is reported as 2.1, the EC50 [1, 2] is reported as 3.9 ± 0.5 nM and the melting point is reported as 207 to 210 °C.
